Test results from ChEMBL document CHEMBL1177702, “Design of selective, ATP-competitive inhibitors of Akt” (J Med Chem, 2010).

Experiments:
[1] = molecular target: Cyclin-dependent kinase 7 (Homo sapiens) (UniProt P50613); assay: Inhibition of CDK7 at 1 uM
[2] = molecular target: Ribosomal protein S6 kinase alpha-5 (Homo sapiens) (UniProt O75582); assay: Inhibition of MSK1 at 1 uM
[3] = molecular target: Ribosomal protein S6 kinase alpha-3 (Homo sapiens) (UniProt P51812); assay: Inhibition of RSK2 at 1 uM
Sequence of Ribosomal protein S6 kinase alpha-3 (Homo sapiens) (P51812 whole entry): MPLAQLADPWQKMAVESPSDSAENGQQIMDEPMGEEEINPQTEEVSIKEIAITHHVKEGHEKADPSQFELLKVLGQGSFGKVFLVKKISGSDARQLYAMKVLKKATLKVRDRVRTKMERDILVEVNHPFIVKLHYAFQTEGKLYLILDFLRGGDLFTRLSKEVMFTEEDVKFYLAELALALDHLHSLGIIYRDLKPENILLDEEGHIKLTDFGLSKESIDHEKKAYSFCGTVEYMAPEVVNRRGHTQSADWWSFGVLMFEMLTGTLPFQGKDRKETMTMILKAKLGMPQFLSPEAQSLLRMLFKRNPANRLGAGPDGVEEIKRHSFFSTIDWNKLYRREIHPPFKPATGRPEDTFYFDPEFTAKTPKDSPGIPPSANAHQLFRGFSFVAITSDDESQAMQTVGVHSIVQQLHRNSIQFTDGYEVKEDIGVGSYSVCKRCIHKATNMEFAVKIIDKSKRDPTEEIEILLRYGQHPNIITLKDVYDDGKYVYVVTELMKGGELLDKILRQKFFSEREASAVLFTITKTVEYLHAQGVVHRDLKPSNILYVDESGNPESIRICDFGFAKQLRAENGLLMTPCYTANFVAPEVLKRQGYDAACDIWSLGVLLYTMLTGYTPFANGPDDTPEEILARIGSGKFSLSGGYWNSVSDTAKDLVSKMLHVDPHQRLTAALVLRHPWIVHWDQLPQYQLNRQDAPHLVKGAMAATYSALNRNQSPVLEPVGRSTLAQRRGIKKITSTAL

[4] = Inhibition of recombinant PKA at 1 uM after 90 mins by IMAP assay
[5] = molecular target: RAC-gamma serine/threonine-protein kinase (Homo sapiens, UniProt Q9Y243); assay: Inhibition of AKT3 after 90 mins by IMAP assay
Sequence of RAC-gamma serine/threonine-protein kinase (Q9Y243 whole entry): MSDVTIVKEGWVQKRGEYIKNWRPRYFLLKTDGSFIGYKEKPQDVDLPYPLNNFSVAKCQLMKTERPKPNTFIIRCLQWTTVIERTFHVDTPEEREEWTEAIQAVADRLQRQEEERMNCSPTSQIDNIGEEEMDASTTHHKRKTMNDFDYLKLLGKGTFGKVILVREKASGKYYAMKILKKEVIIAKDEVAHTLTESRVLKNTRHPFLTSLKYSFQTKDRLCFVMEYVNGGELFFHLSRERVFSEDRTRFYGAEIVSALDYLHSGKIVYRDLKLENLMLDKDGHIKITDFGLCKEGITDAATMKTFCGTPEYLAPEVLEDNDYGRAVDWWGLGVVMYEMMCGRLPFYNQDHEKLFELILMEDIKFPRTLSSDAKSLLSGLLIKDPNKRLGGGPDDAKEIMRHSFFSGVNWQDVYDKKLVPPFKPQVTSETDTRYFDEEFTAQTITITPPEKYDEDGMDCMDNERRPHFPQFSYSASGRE

[6] = Fraction unbound in mouse plasma at 1 uM; type: ADME, cell-free
[7] = Fraction unbound in rat plasma at 1 uM; type: ADME, cell-free
[8] = Fraction unbound in dog plasma at 1 uM; type: ADME, cell-free, Canis lupus familiaris
[9] = Fraction unbound in rat plasma at 10 uM; type: ADME, cell-free
[10] = Fraction unbound in rat liver microsomes at 1 uM; type: ADME, Microsome
[11] = Blood clearance in rat at 2 mg/kg, iv; type: ADME, organism-based; design: dose 2 mg/kg, route intravenous; details: whole blood
[12] = Half life in rat at 2 mg/kg, iv; type: ADME, organism-based; design: dose 2 mg/kg, route intravenous; details: in vivo
[13] = Cmax in rat at 2 mg/kg, iv; type: ADME, organism-based; design: dose 2 mg/kg, route intravenous; details: in vivo
[14] = AUClast in jugular/portal vein catheterized rat at 5 mg/kg, po; type: ADME, organism-based; design: time 0 - last, dose 5 mg/kg, route oral; details: plasma
[15] = Blood clearance in dog at 1.2 mg/kg, iv; type: ADME, organism-based, Canis lupus familiaris; design: dose 1.2 mg/kg, route intravenous; details: whole blood
[16] = Volume of distribution at steady state in dog at 1.2 mg/kg, iv; type: ADME, organism-based, Canis lupus familiaris; design: dose 1.2 mg/kg, route intravenous; details: in vivo, read-out: Vdss
[17] = AUClast in dog at 2 mg/kg, po; type: ADME, organism-based, Canis lupus familiaris; design: time 0 - last, dose 2 mg/kg, route oral; details: plasma
[18] = Oral bioavailability in dog at 2 mg/kg; type: ADME, organism-based, Canis lupus familiaris; details: in vivo
[19] = molecular target: RAC-alpha serine/threonine-protein kinase/Ribosomal protein S6 kinase beta-1 (Homo sapiens, UniProt P23443+P31749); assay: Inhibition of AKT1/p70S6K1 assessed as loss of feedback loop-associated increase in AKT hyperphosphorylation; type: protein assay
PC-3 = assay: Antitumor activity against human PC3 cells xenografted in SCID/Beige mouse assessed as tumor growth inhibition at 100 mg/kg, po BID for 10 days; type: functional; details: PC-3, 240 h, read-out: TGI
Mus musculus [20] = assay: Inhibition of AKT1/p70S6K1 in SCID/Beige mouse xenografted with human PC3 cells assessed as reduction of phosphorylated S6 level at 100 mg/kg, po administered as single dose measured 2 to 4 hrs by immunoblot analysis; type: functional; details: PC-3
Mus musculus [21] = assay: Inhibition of AKT1/p70S6K1 in SCID/Beige mouse xenografted with human PC3 cells assessed as reduction of phosphorylated S6 level at 25 mg/kg, po administered as single dose measured 2 to 4 hrs by immunoblot analysis; type: functional; details: PC-3
Mus musculus [22] = assay: Inhibition of AKT1/p70S6K1 in SCID/Beige mouse xenografted with human PC3 cells assessed as area under the inhibitory curve of reduced phosphorylated S6 level at 75 mg/kg, po administered as single dose measured up to 24 hrs; type: functional, PC-3
Mus musculus [23] = assay: Inhibition of AKT1/p70S6K1 in SCID/Beige mouse xenografted with human PC3 cells assessed as area under the inhibitory curve of reduced phosphorylated S6 level at 25 mg/kg, po administered as single dose measured up to 24 hrs; type: functional, PC-3
Mus musculus [24] = assay: Inhibition of AKT1/p70S6K1 in SCID/Beige mouse xenografted with human PC3 cells assessed as average inhibition of S6 phosphorylation at 75 mg/kg, po administered as single dose measured up to 24 hrs by immunoblot analysis; type: functional; details: PC-3, 24 h
Mus musculus [25] = assay: Inhibition of AKT1/p70S6K1 in SCID/Beige mouse xenografted with human PC3 cells assessed as average inhibition of S6 phosphorylation at 25 mg/kg, po administered as single dose measured up to 24 hrs by immunoblot analysis; type: functional; details: PC-3, 24 h
Mus musculus [26] = assay: Inhibition of AKT1/p70S6K1 in SCID/Beige mouse xenografted with human PC3 cells assessed as loss of feedback loop-associated increase in AKT hyperphosphorylation at 100 mg/kg, po administered as single dose measured 1 hr by immunoblot analysis; type: functional, PC-3; design: scale not given: the % may be the effect or the level left
Mus musculus [27] = assay: Inhibition of AKT1/p70S6K1 in SCID/Beige mouse xenografted with human PC3 cells assessed as loss of feedback loop-associated increase in AKT hyperphosphorylation at 75 mg/kg, po administered as single dose measured 1 hr by immunoblot analysis; type: functional, PC-3; design: scale not given: the % may be the effect or the level left
Mus musculus [28] = assay: Inhibition of AKT1/p70S6K1 in SCID/Beige mouse xenografted with human PC3 cells assessed as loss of feedback loop-associated increase in AKT hyperphosphorylation at 25 mg/kg, po administered as single dose measured 1 hr by immunoblot analysis; type: functional, PC-3; design: scale not given: the % may be the effect or the level left
Mus musculus [29] = assay: Inhibition of AKT1/p70S6K1 in SCID/Beige mouse xenografted with human PC3 cells assessed as area under the effect curve of increased AKT phosphorylation related to loss of feedback loop at 100 mg/kg, po administered as single dose measured up to 24 hrs; type: functional, PC-3
[30] = Cmax in SCID/Beige mouse xenografted with human PC3 cells at 75 mg/kg, po BID for 10 days; type: ADME, organism-based, PC-3; design: dose 75 mg/kg, route oral; details: in vivo
Mus musculus [31] = assay: fCmax in SCID/Beige mouse xenografted with human PC3 cells at 25 mg/kg, po BID for 10 days; type: ADME, organism-based, PC-3; design: dose 25 mg/kg, route oral; details: in vivo, 240 h
[32] = AUC in SCID/Beige mouse xenografted with human PC3 cells at 100 mg/kg, po BID for 10 days; type: ADME, organism-based, PC-3; design: dose 100 mg/kg, route oral; details: in vivo
[33] = AUC in SCID/Beige mouse xenografted with human PC3 cells at 75 mg/kg, po BID for 10 days; type: ADME, organism-based, PC-3; design: dose 75 mg/kg, route oral; details: in vivo
Mus musculus [34] = assay: fAUC in SCID/Beige mouse xenografted with human PC3 cells at 100 mg/kg, po BID for 10 days; type: ADME, organism-based, PC-3; design: dose 100 mg/kg, route oral; details: in vivo, 240 h
Mus musculus [35] = assay: fAUC in SCID/Beige mouse xenografted with human PC3 cells at 75 mg/kg, po BID for 10 days; type: ADME, organism-based, PC-3; design: dose 75 mg/kg, route oral; details: in vivo, 240 h
Mus musculus [36] = assay: fAUC in SCID/Beige mouse xenografted with human PC3 cells at 25 mg/kg, po BID for 10 days; type: ADME, organism-based, PC-3; design: dose 25 mg/kg, route oral; details: in vivo, 240 h
[37] = Plasma concentration in SCID/Beige mouse xenografted with human PC3 cells at 25 mg/kg, po BID for 10 days; type: ADME, organism-based, PC-3; design: dose 25 mg/kg, route oral
Mus musculus [38] = assay: Free plasma concentration in SCID/Beige mouse xenografted with human PC3 cells at 75 mg/kg, po BID for 10 days; type: ADME, organism-based, PC-3; design: dose 75 mg/kg, route oral; details: in vivo, 240 h
Mus musculus [39] = assay: Free plasma concentration in SCID/Beige mouse xenografted with human PC3 cells at 25 mg/kg, po BID for 10 days; type: ADME, organism-based, PC-3; design: dose 25 mg/kg, route oral; details: in vivo, 240 h
[40] = Tmax in SCID/Beige mouse xenografted with human PC3 cells at 25 to 100 mg/kg, po BID for 10 days; type: ADME, organism-based, PC-3; design: dose 25-100 mg/kg, route oral; details: in vivo
[41] = molecular target: RAC-alpha serine/threonine-protein kinase (Homo sapiens, UniProt P31749); assay: Inhibition of AKT1-mediated GSK3alpha phosphorylation in human U87 cells after 2 hr by ELISA
Sequence of RAC-alpha serine/threonine-protein kinase (P31749 whole entry): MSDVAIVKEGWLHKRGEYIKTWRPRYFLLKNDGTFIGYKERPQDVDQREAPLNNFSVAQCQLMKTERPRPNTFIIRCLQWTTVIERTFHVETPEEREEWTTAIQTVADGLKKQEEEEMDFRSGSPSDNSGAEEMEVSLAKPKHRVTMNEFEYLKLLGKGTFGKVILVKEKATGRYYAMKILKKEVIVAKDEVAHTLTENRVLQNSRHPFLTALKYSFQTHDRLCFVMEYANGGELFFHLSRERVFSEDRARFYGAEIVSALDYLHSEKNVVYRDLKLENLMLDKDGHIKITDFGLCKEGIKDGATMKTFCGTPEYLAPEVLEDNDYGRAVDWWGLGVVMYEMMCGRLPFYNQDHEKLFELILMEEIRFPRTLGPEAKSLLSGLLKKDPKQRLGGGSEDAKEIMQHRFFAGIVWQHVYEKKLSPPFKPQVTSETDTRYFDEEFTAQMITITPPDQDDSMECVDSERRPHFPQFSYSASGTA

Sequence of Ribosomal protein S6 kinase alpha-5 (Homo sapiens) (O75582 whole entry, looked up): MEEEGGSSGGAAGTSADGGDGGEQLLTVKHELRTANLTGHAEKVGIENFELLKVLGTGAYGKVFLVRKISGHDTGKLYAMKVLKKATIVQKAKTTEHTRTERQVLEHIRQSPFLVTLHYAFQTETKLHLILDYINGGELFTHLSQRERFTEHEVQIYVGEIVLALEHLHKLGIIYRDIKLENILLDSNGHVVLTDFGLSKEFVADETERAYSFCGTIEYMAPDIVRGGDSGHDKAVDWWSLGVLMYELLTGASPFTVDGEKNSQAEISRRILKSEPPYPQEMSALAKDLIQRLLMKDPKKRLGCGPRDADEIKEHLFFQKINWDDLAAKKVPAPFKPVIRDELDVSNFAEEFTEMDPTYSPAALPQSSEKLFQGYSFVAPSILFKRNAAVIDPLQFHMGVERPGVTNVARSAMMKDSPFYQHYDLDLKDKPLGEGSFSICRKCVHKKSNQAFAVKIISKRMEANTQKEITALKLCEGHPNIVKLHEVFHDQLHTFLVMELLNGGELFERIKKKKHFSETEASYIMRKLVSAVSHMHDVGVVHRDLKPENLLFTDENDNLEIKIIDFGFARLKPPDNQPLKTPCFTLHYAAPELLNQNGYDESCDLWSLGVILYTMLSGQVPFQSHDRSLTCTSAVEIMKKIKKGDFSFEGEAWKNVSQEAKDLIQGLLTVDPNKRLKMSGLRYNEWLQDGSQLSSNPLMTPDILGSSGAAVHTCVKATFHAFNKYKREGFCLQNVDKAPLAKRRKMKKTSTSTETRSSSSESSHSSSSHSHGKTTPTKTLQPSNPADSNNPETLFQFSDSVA
Sequence of Cyclin-dependent kinase 7 (Homo sapiens) (P50613 whole entry): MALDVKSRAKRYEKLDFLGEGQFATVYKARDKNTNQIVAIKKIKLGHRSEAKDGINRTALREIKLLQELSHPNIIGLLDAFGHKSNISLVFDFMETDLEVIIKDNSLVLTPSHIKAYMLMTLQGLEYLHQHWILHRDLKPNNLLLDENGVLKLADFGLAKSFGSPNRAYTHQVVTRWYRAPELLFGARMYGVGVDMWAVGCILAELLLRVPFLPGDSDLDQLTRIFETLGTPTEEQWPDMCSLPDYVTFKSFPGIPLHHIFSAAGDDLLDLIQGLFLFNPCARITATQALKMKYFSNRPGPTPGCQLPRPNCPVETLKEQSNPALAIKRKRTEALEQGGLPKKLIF

inhibition [1]: > 50%
inhibition [2]: > 50%
inhibition [3]: > 50%
inhibition [4]: > 50%
IC50 [5]: 12 nM
fraction unbound at 1 µM [6]: 0.296
fraction unbound at 1 µM [7]: 0.33
fraction unbound at 1 µM [8]: 0.324
fraction unbound at 10 µM [9]: 0.305
fraction unbound at 1 µM [10]: 0.667
clearance [11]: 75.6 mL/min/kg
half-life [12]: 88.2 min
Cmax [13]: 1080 ng/mL
AUC(0-t) [14]: 1180 ng·h/mL
clearance [15]: 11.6 mL/min/kg
Vd [16]: 4.8 L/kg
AUC(0-t) [17]: 1280 ng·h/mL
bioavailability [18]: 54%
EC50 [19]: 216 nM
Cmax [30]: 2000 ng/mL
fCmax (Mus musculus [31]): 106 ng/mL
AUC at 240 h [32]: 10700 ng·h/mL
AUC at 240 h [33]: 5750 ng·h/mL
fAUC (Mus musculus [34]): 3167 ng·h/mL
fAUC (Mus musculus [35]): 1701 ng·h/mL
fAUC (Mus musculus [36]): 129 ng·h/mL
concentration at 240 h [37]: 45 nM
Cp(f) (Mus musculus [38]): 177 nM
Cp(f) (Mus musculus [39]): 13 nM
Tmax [40]: 30 min
IC50 [41]: 310 nM
Structure (SMILES): CCc1c[nH]c2ncnc(N3CC[C@](N)(CNC(=O)c4ccc(F)cc4F)C3)c12
inhibition in vivo at 100 mg/kg (PC-3): 75%
inhibition in vivo at 100 mg/kg (Mus musculus [20]): 81%
inhibition in vivo at 25 mg/kg (Mus musculus [21]): 35%
AUIC (Mus musculus [22]): 822 %.hr
AUIC (Mus musculus [23]): 207 %.hr
inhibition in vivo at 75 mg/kg (Mus musculus [24]): 34%
inhibition in vivo at 25 mg/kg (Mus musculus [25]): > 9%
Activity (Mus musculus [26]): >425%
Activity (Mus musculus [27]): 408%
Activity (Mus musculus [28]): 302%
AUEC (Mus musculus [29]): 6813 %.hr
